Source: US20030017497A1, “Peptide mimotopes of carbohydrate antigens” (priority 1998, published 2003)
“Also recorded” adds a separate entry of the source. Like-named read-outs stand apart in the source and are kept apart here. Where no end group is shown, it is not given here.

Tests used:
[1] = test system: anti-LeY monoclonal antibody BR55-2; assay: ELISA reaction of MAb BR55-2 with peptides (MAP forms); assay type: binding; conditions: for binding of peptide to BR55-2 in ELISA: monovalent peptide; for ELISA reactivity of BR55-2 with MAP peptide: MAP peptide forms
Method: (§1) FIGS. 2A and 2B depict the reactivity of putative motifs by ELISA. […] Constant amounts of BR55-2 were incubates with increasing amounts of MAP peptides, and then reaction of free mAb with LeY was measured by ELISA. Data points reflect 50% inhibition at 2 μg/ml of peptide inhibitor as measured by reduction of O.D. values in ELISA.
(§2) For example, polyclonal antibodies raised against the motif YYRYD might cross-react with MCP and with LeY. […] To further determine the extent of cross-reactivity for these motifs, peptides were synthesized repeating the respective putative centralized motifs shown in Table 2. It is theorized that the repeating tract should adopt a helix configuration which emulates many extended carbohydrate structures. To evaluate the antigenic mimicry of motif forms, we synthesized respective multiple antigen peptides (MAP) forms for detection of a reactivity pattern with the anti-LeY monoclonal antibodies BR55-2, and 15.6 (also referred to as BR15.6) and the anti-ganglioside antibody ME361 (FIG. 2a). Significant reactive sequences in FIG. 2a correspond to 3 peptides,
(§3) BR55-2 and 15.6A show distinct binding properties for LeY expressing tumor cells. […] The general mimicry of the K1106, K1105 and K1107 peptides for Le antigens is further assessed by ELISA reactivity with the anti-SA-LeX monoclonal antibody FH-6 (FIG. 3). These peptides are also reactive with this antibody. The significance of this reactivity is that previous reports indicate that peptides might only be reactive with antibodies that isolate them and in fact it is expected that peptide mimotopes might be not true mimics of carbohydrates.

[2] = test system: anti-LeY monoclonal antibody 15.6 (BR15.6, 15.6A); assay: ELISA reaction of MAb 15.6 (BR15-6A) with peptides; assay type: binding
Method: as §1, §2
(§4) BR55-2 and 15.6A show distinct binding properties for LeY expressing tumor cells. […] The general mimicry of the K1106, K1105 and K1107 peptides for Le antigens is further assessed by ELISA reactivity with the anti-SA-LeX monoclonal antibody FH-6 (FIG. 3). These peptides are also reactive with this antibody. […]

[3] = test system: anti-ganglioside antibody ME361; assay: ELISA reaction of MAb ME361 with MAP peptides; assay type: binding; conditions: MAP peptide forms
Method: as §1, §2, §4

[4] = test system: BR55-2 binding to LeY-PAA; assay: Inhibition of mAb BR55-2 binding to solid-phase LeY-PAA by soluble MAP peptides (ELISA); conditions: 20 times molar excess of MAP peptide
Method: as §1, §3

[5] = test system: anti-SA-LeX monoclonal antibody FH-6; assay: ELISA reactivity of peptides with antibody FH-6; assay type: binding
Text: FIG. 3 depicts the reactivity of the anti-sLex antibody FH-6 with MAP peptides.
as §3

HIV-1/3B isolate = assay: HIV-1 cell free neutralization; assay type: cell-based; conditions: Balb/c anti-peptide sera
Text: (§5) FIGS. 7A, 7B and 7C depict anti-peptide sera mediation of HIV-1 cell free neutralization.
(§6) Mannose, sialyl and histo-blood group related carbohydrate epitopes (particularly LeY) are found on the major envelope protein of the human immunodeficiency virus (HIV). Consequently, we examined the extent to which the anti-peptide sera could mediate HIV-1 cell free neutralization. We observed that sera from Balb/c and C57B1/6 mice immunized with P1 or P2, neutralized HIV-1/MN at final dilution's up to 1:64 (FIGS. 7a-c). FIG. 7a illustrates the neutralization of HIV-1/MN by anti-P1 and P2 sera from Balb/c mice. Normal human sera (NHS), as well as the anti-P3 sera, were ineffective at blocking syncytia formnation, whereas human α-HIV-1 sera from 4 different infected patients neutralize cell free virus at dilution's up to 1:64. Sera derived from C57B1/6 mice also followed this profile (FIG. 7b). The isolate specificity was further determined by cell free neutralization of the HIV-1/3B isolate (FIG. 7c).

OVAR-3 = assay: Complement dependent cytotoxicity (CDC); assay type: cell-based, human
Text: (§7) Anti-carbohydrate antibodies may mediate complement dependent cytotoxicity (CDC) better than cytotoxicity associated with various effector cells. Subsequently, we have initially examined CDC mediation of various sera raised either to peptides or against the multivalent LeY-PAA form. […] We examined the ability of the sera to mediate complement dependent cytotoxicity (CDC) of the SKBR3 and MCF7 human breast adenocarcinoma cell lines, the ovarian tumor cell line OVAR-3 and the human melanoma lines WM793 and SKMEL-28 compared to that of the LeY-PAA generated sera. Positive control antibodies were BR55-2 which mediates CDC of the adenocarcinoma lines, and ME361 which mediates killing of WM793. Negative controls were pre-immune sera, an irrelevant peptide immunogen (C1) and two peptides (G1 and G2) isolated from phage display that are reactive with ME361.

SKME1-28 = assay: Complement dependent cytotoxicity (CDC); assay type: cell-based, human
Text: as §7

SKBR3 = assay: Complement dependent cytotoxicity (CDC); assay type: cell-based, human
Text: as §7

WM793 = assay: Complement dependent cytotoxicity (CDC); assay type: cell-based, human
Text: as §7

MCF-7 = assay: Complement dependent cytotoxicity (CDC); assay type: cell-based, human
Text: as §7

HIV-1/MN = assay: HIV-1 cell free neutralization (syncytia formation); assay type: cell-based; conditions: anti-peptide sera
Text: as §5, §6

[6] = ELISA with various synthetic carbohydrate subunit probes; assay type: binding
Method: To further evaluate the specificity of the anti-carbohydrate IgG fraction derived from proteosome-conjugate immunized mice, ELISA assays were performed with plates coated with various synthetic carbohydrate subunit probes (FIG. 5a). […] It was observed that the anti-peptide sera (1:100 titer) was reactive with respective carbohydrate probes above background binding. Preferences for antisera against the YPY motif include Fucα1-3GlcNAc representative of LeY, and Lex, the H type 1 structure Fucα1-2Galβ1-3GlcNAc representative of Leb, and the disaccharide Galb1-4Glc which is a major constituent bacterial LOS. […] The antisera reacted with both H type 1 and H type 2 (Fucα1-2Galβ1-4GlcNAc) structures, with the type 1 structure displaying slightly more activity. This may reflect interaction with the common Fucα1-2Gal structure found on type 1 and type 2 structures or functional groups that are shared within the common topography of these two chains.
In contrast to the proteosome-peptide conjugates, increased specificity for LeY is observed for the MAP forms (FIG. 5b). At 1:50 dilution, the LeY reactivity of the antisera is approximately 3 fold more reactive with LeY than with Leb, Lex-pentasaccharide, SLea, SLex. […] Considering the diminished reactivity against LeX which shares the Galβ1→4(Fucα1→3)GlcNAcβ1 component it would appear that a fraction of antibodies react with a conformational component of LeY, providing for its increased reactivity, or alternatively, the affinity for LeY is increased.
To further evaluate the specificity of the 1104 peptide we synthesized 1104 as a MAP form and immunized Balb/c mice, with QS-21 as adjuvant and examined its reactivity pattern with various Le synthetic probes by ELISA (FIG. 9). The utility of MAP peptides is in their apparent advantage as immunogens. […] However, the MAPS described above contain T cell epitopes within the peptide sequence. […] We have observed this trend with MAP peptides.
At 1:50 serum dilution (FIG. 9), we observed about the same level of reduced reactivity for Leb hexasaccharide, LeX-pentasaccharide, sLeX, Lea, and sLea, while higher levels of reactivity are observed for LeY and LeY constituents. […] This selective interaction sets apart reactivities between Leb and LeY, since reactivity is observed for the H type 1 constituent of Leb.

[7] = ELISA reactivity of sera of peptide-immunized mice with LeY and Leb; assay type: in vivo, Balb/c mice; conditions: anti-1104 MAP sera
Text: The immunological presentation of the putative motifs, (i.e. short or longer peptides, presentation in a helix or beta bend, monovalent or multivalent (clustered forms)) might mimic overlapping epitopes on otherwise different carbohydrate structures. To test this idea, Balb/c mice were immunized with peptide-proteosome conjugates representative of the motifs YYPYD (SEQ ID NO: 6), and YYRYD (SEQ ID NO: 7) or the same peptides as MAP forms that are multiple repeats of the motifs administered with QS-21. Sera were collected 1 week after the last immunization, pooled and tested for reactivity with LeY and Leb. […] Superposition of LeY and Leb structures indicate that despite the change of glycosidic linkage from β1-3 to β1-4 in the type 1 and 2 chains, resulting conformational features of the respective sugar moieties are still shared forming a common topography. The only effective difference is the position of the N-acetyl and hydroxymethyl groups projected on opposite sides of the type 1 and 2 difucosylated structures.
Sera derived from immunization with the MAP peptides indicate that the IgM isotype is the predominate form, titering out to 1:2000 for the two carbohydrate forms, but displaying significant differences in reactivity for LeY and Leb that are accentuated at 1:100 and 1:500 titer (FIG. 4b). […]

[8] = target: anti-LeY monoclonal antibody BR55-2; assay: competition ELISA: soluble MAP peptide against solid-phase LeY-PAA for BR55-2 (FIG. 2b)
[9] = OVAR-3, sera raised to the immunogen, final dilution 1:15
[10] = SKME1-28, sera raised to the immunogen, final dilution 1:15
[11] = SKBR3, sera raised to the immunogen, final dilution 1:15
[12] = WM793, sera raised to the immunogen, final dilution 1:15
[13] = MCF-7, sera raised to the immunogen, final dilution 1:15
[14] = anti-1104 MAP sera, 1:50 serum dilution

With “APWLYAP (Novel Sequence) [reference compound]” the “binding of peptide to BR55-2 in ELISA” value [1] was “negative” and the “ELISA reactivity of 15.6 / BR15-6A with peptide” value [2] was “negative”.

With “APWLYGPA (Novel Sequence) [reference compound]” the “binding of peptide to BR55-2 in ELISA” value [1] was “does not bind”.

For “GGGAPWLYGAPWLYGAPWLY [Peptide K61223, triple repeat of the APWLY motif]”, the “ELISA reactivity of BR55-2 with MAP peptide” value [1] was “not reactive; also recorded: little reactivity”, the “ELISA reactivity (O.D.) of ME361 with MAP peptide” value [3] was “not reactive” and the “ELISA reactivity of 15.6 / BR15-6A with peptide” value [2] was “not reactive”.

For “GGIYWRYDIYWRYDIYWRYD (Novel Sequence) [Peptide K61106]”, the “inhibition of BR55-2 binding to LeY” value [4] was 50%, the “ELISA reactivity of BR55-2 with MAP peptide” value [1] was “bound very well” and the “ELISA reactivity with FH-6” value [5] was “also reactive”.

In the case of “GGIYWRYDIYWRYDIYWRYD (Novel Sequence) [Peptide P2, elsewhere called YYRYD motif]”, the “neutralization of HIV-1/3B infection in vitro” value (HIV-1/3B isolate) is reported as “effective in neutralizing”, the averaged percent cytotoxicity (OVAR-3) is reported as 84% and the averaged percent cytotoxicity (SKME1-28) is reported as 13%. The averaged percent cytotoxicity (SKBR3) was 80%, the averaged percent cytotoxicity (WM793) was 9% and the averaged percent cytotoxicity (MCF-7) was 29%.

In the case of “GGIYYPYDIYYPYDIYYPYD (Novel Sequence) [Peptide K61105]”, the “ELISA reactivity of BR55-2 with MAP peptide” value [1] is reported as “reduces the recognition ability” and the “ELISA reactivity with FH-6” value [5] is reported as “also reactive”.

For “GGIYYPYDIYYPYDIYYPYD (Novel Sequence) [Peptide P1]”, the “neutralization of HIV-1/3B infection in vitro” value (HIV-1/3B isolate) was “effective in neutralizing”, the averaged percent cytotoxicity (OVAR-3; [9]) was 89% and the averaged percent cytotoxicity (SKME1-28; [10]) was 10%. For the same molecule, the averaged percent cytotoxicity (SKBR3; [11]) was 90%, the averaged percent cytotoxicity (WM793; [12]) was 9% and the averaged percent cytotoxicity (MCF-7; [13]) was 66%.

In the case of “GGIYYRYDIYYRYDIYYRYD (Novel Sequence) [Peptide P3]”, the blocking syncytia formation (HIV-1/MN) is reported as “ineffective”, the averaged percent cytotoxicity (OVAR-3) is reported as 86% and the averaged percent cytotoxicity (SKME1-28) is reported as 32%. For the same molecule, the averaged percent cytotoxicity (SKBR3) was 86%, the averaged percent cytotoxicity (WM793) was 28% and the averaged percent cytotoxicity (MCF-7) was 56%.

For “GGYYRYDIYYRYDIYYRYD (Novel Sequence) [Peptide K61107]”, the “inhibition of BR55-2 binding to LeY” value [4] was 50%, the “ELISA reactivity of BR55-2 with MAP peptide” value [1] was “bound very well” and the “less reactivity with Lea and Sialyl-Lex” value ([6]; antisera to MAP, 1:50 dilution) was “about 1 fold”. The “ELISA reactivity with FH-6” value [5] was “also reactive”.

In the case of “GVVWRYTAPVHLGDG [Peptide G1, GVVWRYTAPVHLGDG]”, the averaged percent cytotoxicity (OVAR-3) is reported as 9%, the averaged percent cytotoxicity (SKME1-28) is reported as 75% and the averaged percent cytotoxicity (SKBR3) is reported as 10%. It also gave an averaged percent cytotoxicity (WM793) of 90% and an averaged percent cytotoxicity (MCF-7) of 20%.

In the case of “IMILLIFSLLWFGGA (Novel Sequence) [Peptide B1]”, the “increase in reactivity for LeY over Leb” value [7] is reported as “three to fold increase”, the “isotype of anti-peptide sera” value [7] is reported as “predominately of IgM isotype” and the averaged percent cytotoxicity (OVAR-3; [9]) is reported as 85%. The averaged percent cytotoxicity (SKME1-28; [10]) was 10%, the averaged percent cytotoxicity (SKBR3; [11]) was 90% and the averaged percent cytotoxicity (WM793; [12]) was 10%. The averaged percent cytotoxicity (MCF-7; [13]) was 70%, the “serum reactivity with Fucal-3GlcNAc” value [6, 14] was “best reactivity” and the “serum reactivity with Fucα1-4GIcNAc” value [6, 14] was “significantly reduced reactivity”. For the same molecule, the “serum reactivity with Galβ1-3Gal” value [6, 14] was “Minimal binding” and the “ELISA reactivity with FH-6” value [5] was “does not react”.

Work on “LDVVLAWRDGLSGAS [Peptide G2, LDVVLAWRDGLSGAS]” yielded an averaged percent cytotoxicity (OVAR-3) of 11%, an averaged percent cytotoxicity (SKME1-28) of 87% and an averaged percent cytotoxicity (SKBR3) of 13%. The averaged percent cytotoxicity (WM793) was 90% and the averaged percent cytotoxicity (MCF-7) was 15%.

GGIYWRYDIYWRYDIYWRYD (also: multiple antigen peptide (MAP) form, branches and core not given here) [K61106 MAP peptide …] showed a molar excess giving 50% inhibition (times molar excess) [8] of 20.

In the case of GGYYRYDIYYRYDIYYRYD (also: multiple antigen peptide (MAP) form, branches and core not given here) [K61107 MAP peptide …], the molar excess giving 50% inhibition (times molar excess) [8] is reported as 20.
